This is an account of results in patent publication US9926282B2, “Phthalazinones and isoquinolinones as rock inhibitors” (BRISTOL-MYERS SQUIBB COMPANY, priority 2013, dated 2018).

Each structure is given as a SMILES string.

For one experiment, the target named is ROCK1 (Homo sapiens (Human), UniProt Q13464). Kind of experiment: ROCK assay (LABCHIP peptide phosphorylation), ROCK1. The conditions noted are these: 5 μM ATP, 1.5 μM peptide substrate; read-out: ROCK1 IC50. The class given is biochemical.
ROCK1, sequence (Q13464 whole entry, species assumed): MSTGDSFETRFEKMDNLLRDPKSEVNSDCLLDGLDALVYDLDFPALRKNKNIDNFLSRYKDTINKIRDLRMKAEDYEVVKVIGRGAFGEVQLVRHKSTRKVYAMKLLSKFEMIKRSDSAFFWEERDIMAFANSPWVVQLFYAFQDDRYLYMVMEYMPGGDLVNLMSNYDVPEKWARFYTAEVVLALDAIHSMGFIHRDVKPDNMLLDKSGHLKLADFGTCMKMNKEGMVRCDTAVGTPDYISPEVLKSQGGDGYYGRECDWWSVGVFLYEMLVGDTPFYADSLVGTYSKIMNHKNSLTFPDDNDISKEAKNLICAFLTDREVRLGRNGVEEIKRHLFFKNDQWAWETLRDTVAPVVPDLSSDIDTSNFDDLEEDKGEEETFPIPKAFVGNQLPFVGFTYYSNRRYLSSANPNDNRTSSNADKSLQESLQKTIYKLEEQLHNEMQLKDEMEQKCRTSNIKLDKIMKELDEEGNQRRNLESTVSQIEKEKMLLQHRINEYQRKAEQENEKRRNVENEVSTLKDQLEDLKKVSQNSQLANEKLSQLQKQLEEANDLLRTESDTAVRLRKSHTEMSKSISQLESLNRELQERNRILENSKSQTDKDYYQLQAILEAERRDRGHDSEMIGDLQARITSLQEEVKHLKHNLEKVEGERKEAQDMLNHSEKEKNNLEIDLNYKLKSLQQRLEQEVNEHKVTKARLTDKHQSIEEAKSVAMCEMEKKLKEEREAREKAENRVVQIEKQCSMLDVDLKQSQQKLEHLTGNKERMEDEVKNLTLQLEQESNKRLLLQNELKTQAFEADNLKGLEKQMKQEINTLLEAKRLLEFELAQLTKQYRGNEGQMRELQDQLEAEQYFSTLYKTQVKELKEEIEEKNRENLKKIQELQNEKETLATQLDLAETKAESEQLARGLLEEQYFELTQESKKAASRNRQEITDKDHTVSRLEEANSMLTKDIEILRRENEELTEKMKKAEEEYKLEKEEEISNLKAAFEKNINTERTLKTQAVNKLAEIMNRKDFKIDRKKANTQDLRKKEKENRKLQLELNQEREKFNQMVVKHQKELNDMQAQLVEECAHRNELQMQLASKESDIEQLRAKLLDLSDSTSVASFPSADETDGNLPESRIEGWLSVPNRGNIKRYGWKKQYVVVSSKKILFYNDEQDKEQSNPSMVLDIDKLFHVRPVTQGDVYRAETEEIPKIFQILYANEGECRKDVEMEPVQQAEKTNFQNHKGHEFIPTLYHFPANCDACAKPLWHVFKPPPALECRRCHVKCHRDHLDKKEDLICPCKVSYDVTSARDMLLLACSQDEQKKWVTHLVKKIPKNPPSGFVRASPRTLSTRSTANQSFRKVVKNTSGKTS
Another experiment addresses ROCK2 (Homo sapiens (Human), UniProt O75116). The experiment is described as follows: ROCK assay (LABCHIP peptide phosphorylation), ROCK2. The conditions noted are these: 5 μM ATP, 1.5 μM peptide substrate. The class given is biochemical.

ROCK2, sequence (O75116 whole entry, species assumed): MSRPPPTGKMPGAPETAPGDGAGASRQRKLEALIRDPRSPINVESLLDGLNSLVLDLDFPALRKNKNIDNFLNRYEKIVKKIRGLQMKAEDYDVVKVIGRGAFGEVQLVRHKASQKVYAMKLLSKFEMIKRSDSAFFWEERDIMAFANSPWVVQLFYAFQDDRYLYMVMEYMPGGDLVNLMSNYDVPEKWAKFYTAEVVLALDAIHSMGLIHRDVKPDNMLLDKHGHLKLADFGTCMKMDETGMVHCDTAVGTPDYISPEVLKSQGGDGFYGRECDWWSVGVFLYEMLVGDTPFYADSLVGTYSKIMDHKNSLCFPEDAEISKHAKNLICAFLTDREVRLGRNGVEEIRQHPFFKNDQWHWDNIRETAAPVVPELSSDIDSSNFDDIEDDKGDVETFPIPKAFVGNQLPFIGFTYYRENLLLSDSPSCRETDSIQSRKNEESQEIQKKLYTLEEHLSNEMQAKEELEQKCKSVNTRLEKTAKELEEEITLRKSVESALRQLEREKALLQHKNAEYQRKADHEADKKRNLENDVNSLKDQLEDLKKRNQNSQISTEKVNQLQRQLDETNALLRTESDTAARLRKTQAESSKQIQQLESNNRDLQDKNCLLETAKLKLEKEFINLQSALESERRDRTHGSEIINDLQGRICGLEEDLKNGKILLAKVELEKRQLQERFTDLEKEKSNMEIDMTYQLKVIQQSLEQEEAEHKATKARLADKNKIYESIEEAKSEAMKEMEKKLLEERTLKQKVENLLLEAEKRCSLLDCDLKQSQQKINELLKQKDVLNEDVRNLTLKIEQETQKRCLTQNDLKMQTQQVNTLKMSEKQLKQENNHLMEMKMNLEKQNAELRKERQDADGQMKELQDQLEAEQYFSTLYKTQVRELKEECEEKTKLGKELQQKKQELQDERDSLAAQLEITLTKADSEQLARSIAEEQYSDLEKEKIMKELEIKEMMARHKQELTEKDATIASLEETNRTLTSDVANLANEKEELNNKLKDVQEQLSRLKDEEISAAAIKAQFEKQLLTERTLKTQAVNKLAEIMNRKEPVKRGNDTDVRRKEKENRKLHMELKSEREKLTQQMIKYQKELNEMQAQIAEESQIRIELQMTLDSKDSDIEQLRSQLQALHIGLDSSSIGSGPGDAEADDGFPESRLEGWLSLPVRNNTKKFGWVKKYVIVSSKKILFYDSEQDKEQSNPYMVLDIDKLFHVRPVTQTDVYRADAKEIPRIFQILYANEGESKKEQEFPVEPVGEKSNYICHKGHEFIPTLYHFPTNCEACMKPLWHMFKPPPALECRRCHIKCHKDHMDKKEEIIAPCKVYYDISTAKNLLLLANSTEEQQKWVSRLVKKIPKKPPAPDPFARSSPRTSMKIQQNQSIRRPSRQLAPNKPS

As a reminder, the IC50 is the concentration needed to halve the response being measured. For `CN(C)c1ccc(C(=O)Nc2ccc3c(c2)N(C(=O)Cc2ccc(-c4n[nH]c(=O)c5ccccc45)cc2)CC3)cc1` [Example 300, 4-(Dimethylamino)-N-(1-(2-(4-(4-oxo-3,4-dihydrophthalazin-1-yl)phenyl)acetyl)indolin-6-yl)benzamide], the IC50 on ROCK1 and on ROCK2 was 0.1 to 100 nM throughout.

Regarding `O=C(Oc1ccc(-c2n[nH]c(=O)c3ccccc23)cc1)N1Cc2ccc(F)cc2C1` [Example 71, 4-(4-Oxo-3,4-dihydrophthalazin-1-yl)phenyl 5-fluoroisoindoline-2-carboxylate], the IC50 fell in the range of 1000 to 50000 nM at ROCK1 and 0.1 to 100 nM against ROCK2.

For the compound `Cc1cc(NC(=O)c2nn(CCN(C)C)c3ccccc23)ccc1-c1n[nH]c(=O)c2ccccc12` [Example 303, 1-[2-(dimethylamino)ethyl]-N-[3-methyl-4-(4-oxo-3,4-dihydrophthalazin-1-yl)phenyl]-1H-indazole-3-carboxamide], the results for the IC50 on ROCK1 and against ROCK2 were 101 to 1000 nM and 0.1 to 100 nM, respectively.

As to `CC(C)(O)Cn1nc(C(=O)Nc2ccc(-c3n[nH]c(=O)c4ccccc34)cc2)c2cc(F)ccc21` [Example 167, 5-fluoro-1-(2-hydroxy-2-methylpropyl)-N-[4-(4-oxo-3,4-dihydrophthalazin-1-yl)phenyl]-1H-indazole-3-carboxamide], the IC50 on ROCK1 and against ROCK2 was 0.1 to 100 nM in each case.

In the case of `O=C(Nc1ccc(-c2n[nH]c(=O)c3ccccc23)cc1)c1n[nH]c(-c2ccccn2)n1` [Example 237, N-[4-(4-oxo-3,4-dihydrophthalazin-1-yl)phenyl]-5-(pyridin-2-yl)-1H-1,2,4-triazole-3-carboxamide], the half-maximal inhibitory concentration (IC50) lay in the range of 101 to 1000 nM on ROCK1 and 0.1 to 100 nM at ROCK2.

Consider `O=C(Nc1ccc(-c2n[nH]c(=O)c3ccccc23)cc1)C1CC(c2ccccc2)=NO1` (stereo not drawn) [Example 196, N-[4-(4-oxo-3,4-dihydrophthalazin-1-yl)phenyl]-3-phenyl-4,5-dihydro-1,2-oxazole-5-carboxamide], for which the IC50 on ROCK1 is 1000 to 50000 nM; against ROCK2, 101 to 1000 nM.

Take `COc1ccc2c(-c3ccc(NC(=O)c4nn(CC(C)(C)O)c5ccccc45)cc3)n[nH]c(=O)c2c1` [Example 369, 1-(2-Hydroxy-2-methylpropyl)-N-(4-(6-methoxy-4-oxo-3,4-dihydrophthalazin-1-yl)phenyl)-1H-indazole-3-carboxamide]: the figures for the IC50 on ROCK1 and at ROCK2 were 101 to 1000 nM and 0.1 to 100 nM, respectively.

Regarding `Cc1oc2ccc(OCc3ccccc3)cc2c1C(=O)Nc1ccc(-c2n[nH]c(=O)c3ccccc23)cc1` [Example 105, 5-(benzyloxy)-2-methyl-N-[4-(4-oxo-3,4-dihydrophthalazin-1-yl)phenyl]-1-benzofuran-3-carboxamide], the IC50 on ROCK1 lay in the range of 101 to 1000 nM; against ROCK2 it was 0.1 to 100 nM.

Take `COC(=O)N1CC(Cn2nc(C(=O)Nc3ccc(-c4n[nH]c(=O)c5ccccc45)cc3)c3ccccc32)C1` [Example 341, Methyl 3-((3-((4-(4-oxo-3,4-dihydrophthalazin-1-yl)phenyl)carbamoyl)-1H-indazol-1-yl)methyl)azetidine-1-carboxylate]: the IC50 at ROCK1 and against ROCK2 was 0.1 to 100 nM throughout.

Take `O=C(Nc1ccc(-c2c[nH]c(=O)c3ccccc23)cc1)c1onc2ccccc12` [Example 247, N-(4-(1-Oxo-1,2-dihydroisoquinolin-4-yl)phenyl)benzo[c]isoxazole-3-carboxamide]: the IC50 on ROCK1 and against ROCK2 was 0.1 to 100 nM throughout.

Consider `O=C(Cc1ccc(-c2n[nH]c(=O)c3ccccc23)c(F)c1)N1CCc2ccccc21` [Example 261, 4-(2-Fluoro-4-(2-(indolin-1-yl)-2-oxoethyl)phenyl)phthalazin-1(2H)-one], for which the IC50 at ROCK1 and at ROCK2 was 0.1 to 100 nM throughout.

As to `O=C(Nc1ccc(-c2n[nH]c(=O)c3ccccc23)cc1)c1nn(CC2CCOCC2)c2ccccc12` [Example 150, 1-(oxan-4-ylmethyl)-N-[4-(4-oxo-3,4-dihydrophthalazin-1-yl)phenyl]-1H-indazole-3-carboxamide], the IC50 on ROCK1 and at ROCK2 was 0.1 to 100 nM each time.

Take `O=C(Cc1ccc(-c2n[nH]c(=O)c3ccccc23)cc1)N1CCc2cc(OC(F)(F)F)cc(Br)c21` [Example 253, 4-(4-(2-(7-Bromo-5-(trifluoromethoxy)indolin-1-yl)-2-oxoethyl)phenyl)phthalazin-1(2H)-one]: the IC50 on ROCK1 was 1000 to 50000 nM; against ROCK2, 101 to 1000 nM.

As to `O=C(Nc1ccc(-c2n[nH]c(=O)c3ccccc23)c(Cl)c1)c1nn(CC2CCOCC2)c2ccccc12` [Example 318, N-[3-chloro-4-(4-oxo-3,4-dihydrophthalazin-1-yl)phenyl]-1-(oxan-4-ylmethyl)-1H-indazole-3-carboxamide], the IC50 at ROCK1 and at ROCK2 was 0.1 to 100 nM throughout.

On to `Cc1cc(CC(=O)N2CCc3ccccc32)ccc1-c1c[nH]c(=O)c2ccccc12` [Example 264, 4-(4-(2-(Indolin-1-yl)-2-oxoethyl)-2-methylphenyl)isoquinolin-1(2H)-one], for which the IC50 at ROCK1 and at ROCK2 was 0.1 to 100 nM each time.

Consider `CCOc1ccc2c(c1)cc(C(=O)Nc1ccc(-c3n[nH]c(=O)c4ccccc34)cc1)n2C` [Example 130, 5-ethoxy-1-methyl-N-[4-(4-oxo-3,4-dihydrophthalazin-1-yl)phenyl]-1H-indole-2-carboxamide], for which the IC50 on ROCK1 and on ROCK2 was 0.1 to 100 nM each time.

For the compound `O=C(Cc1ccc(-c2n[nH]c(=O)c3ccccc23)cc1)Nc1noc2c1CCCC2` [Example 276, 2-[4-(4-oxo-3,4-dihydrophthalazin-1-yl)phenyl]-N-(4,5,6,7-tetrahydro-1,2-benzoxazol-3-yl)acetamide], the IC50 is 1000 to 50000 nM at ROCK1 and 0.1 to 100 nM at ROCK2.

Consider `Cc1cccc(-n2cnc(C(=O)Nc3ccc(-c4n[nH]c(=O)c5ccccc45)cc3)c2)c1` [Example 195, 1-(3-methylphenyl)-N-[4-(4-oxo-3,4-dihydrophthalazin-1-yl)phenyl]-1H-imidazole-4-carboxamide], for which the IC50 on ROCK1 and at ROCK2 was 0.1 to 100 nM in each case.

In the case of `CC(C)(O)Cn1nc(C(=O)Nc2ccc(-c3n[nH]c(=O)c4ccccc34)c(Cl)c2)c2ccccc21` [Example 315, N-[3-chloro-4-(4-oxo-3,4-dihydrophthalazin-1-yl)phenyl]-1-(2-hydroxy-2-methylpropyl)-1H-indazole-3-carboxamide], the IC50 at ROCK1 and on ROCK2 was 0.1 to 100 nM throughout.

On to `O=C(Nc1ccc(-c2n[nH]c(=O)c3ccccc23)cc1)c1cnc2ccccn12` [Example 104, N-[4-(4-oxo-3,4-dihydrophthalazin-1-yl)phenyl]imidazo[1,2-a]pyridine-3-carboxamide], for which the IC50 at ROCK1 and against ROCK2 was 0.1 to 100 nM in each case.

Regarding `O=C(Cc1ccc(-c2n[nH]c(=O)c3ccccc23)cc1)N1CCCc2ccccc21` [Example 34, 4-{4-[2-oxo-2-(1,2,3,4-tetrahydroquinolin-1-yl)ethyl]phenyl}-1,2-dihydrophthalazin-1-one], the IC50 was 1000 to 50000 nM on ROCK1 and 101 to 1000 nM against ROCK2.

For `O=C(Nc1ccc(-c2n[nH]c(=O)c3ccccc23)cc1)c1nn(CC2CCCO2)c2ccccc12` (stereo not drawn) [Example 148, N-[4-(4-oxo-3,4-dihydrophthalazin-1-yl)phenyl]-1-(oxolan-2-ylmethyl)-1H-indazole-3-carboxamide], the IC50 at ROCK1 and against ROCK2 was 0.1 to 100 nM throughout.

Consider `COc1ccc(-n2nnc(C(=O)Nc3ccc(-c4n[nH]c(=O)c5ccccc45)cc3)c2C)cc1` [Example 401, 1-(4-Methoxyphenyl)-5-methyl-N-(4-(4-oxo-3,4-dihydrophthalazin-1-yl)phenyl)-1H-1,2,3-triazole-4-carboxamide], for which the IC50 at ROCK1 and against ROCK2 was 0.1 to 100 nM each time.

As to `Cc1cc(NC(=O)c2cc(C(C)(C)C)n(C)n2)ccc1-c1n[nH]c(=O)c2ccccc12` [Example 395, 5-(tert-Butyl)-1-methyl-N-(3-methyl-4-(4-oxo-3,4-dihydrophthalazin-1-yl)phenyl)-1H-pyrazole-3-carboxamide], the IC50 on ROCK1 and against ROCK2 was 0.1 to 100 nM in each case.

Consider `Cc1nn(-c2ccccc2)c(C)c1C(=O)Nc1ccc(-c2n[nH]c(=O)c3ccccc23)cc1` [Example 219, 3,5-dimethyl-N-[4-(4-oxo-3,4-dihydrophthalazin-1-yl)phenyl]-1-phenyl-1H-pyrazole-4-carboxamide], for which the IC50 on ROCK1 and against ROCK2 was 0.1 to 100 nM each time.

As to `Cc1cc(NC(=O)c2c3ccccc3nn2CCN(C)C)ccc1-c1n[nH]c(=O)c2ccccc12` [Example 304, 2-[2-(dimethylamino)ethyl]-N-[3-methyl-4-(4-oxo-3,4-dihydrophthalazin-1-yl)phenyl]-2H-indazole-3-carboxamide], the IC50 is 101 to 1000 nM at ROCK1 and 0.1 to 100 nM against ROCK2.

With `O=C(Cc1ccc(-c2n[nH]c(=O)c3ccccc23)cc1)N1CCN(c2ncccn2)CC1` [Example 15, 4-(4-{2-oxo-2-[4-(pyrimidin-2-yl)piperazin-1-yl]ethyl}phenyl)-1,2-dihydrophthalazin-1-one], the IC50 at ROCK1 and on ROCK2 was 1000 to 50000 nM in each case.

With `COc1cccc2cc(C(=O)Nc3ccc(-c4n[nH]c(=O)c5ccccc45)cc3)[nH]c12` [Example 129, 7-methoxy-N-[4-(4-oxo-3,4-dihydrophthalazin-1-yl)phenyl]-1H-indole-2-carboxamide], the IC50 at ROCK1 and at ROCK2 was 0.1 to 100 nM each time.

Take `COc1ccc2c(c1)CN(C(=O)Oc1ccc(-c3n[nH]c(=O)c4ccccc34)cc1)C2` [Example 70, 4-(4-Oxo-3,4-dihydrophthalazin-1-yl)phenyl 5-methoxyisoindoline-2-carboxylate]: the IC50 fell in the range of 1000 to 50000 nM on ROCK1 and 0.1 to 100 nM against ROCK2.

In the case of `COC(=O)CCn1nc(C(=O)Nc2ccc(-c3n[nH]c(=O)c4ccccc34)cc2)c2ccccc21` [Example 332, Methyl 3-(3-((4-(4-oxo-3,4-dihydrophthalazin-1-yl)phenyl)carbamoyl)-1H-indazol-1-yl)propanoate], the IC50 on ROCK1 and against ROCK2 was 0.1 to 100 nM throughout.
